Results reported in publication PMC4457528, “Identification of Novel Small Molecule Inhibitors of Oncogenic RET Kinase” (PLoS ONE, 2015).
Read-outs that look alike come from different tables or passages of the source.

Key:
Assay in all cases: KinomeScan kinase panel, single concentration 10 µM
Type in all cases: binding
[1] = target: T1, KinomeScan kinase panel (Homo sapiens, UniProt Q9UM73); conditions: ALK, 10 µM; read-out: score (%)
T1 construct: purchased DiscoveRx (KinomeScan)

[2] = target: T2, KinomeScan kinase panel (Homo sapiens, UniProt P04049); conditions: read-out: score (%)
T2 construct: purchased DiscoveRx (KinomeScan)

[3] = target: T3, KinomeScan kinase panel (Homo sapiens, UniProt P42338); conditions: PIK3CB, 10 µM; read-out: score (%)
T3 construct: purchased DiscoveRx (KinomeScan)

[4] = target: T4, KinomeScan kinase panel (Homo sapiens, UniProt Q8IW41); conditions: MAPKAPK5, 10 µM; read-out: score (%)
T4 construct: purchased DiscoveRx (KinomeScan)
T4 sequence (Q8IW41 1-473): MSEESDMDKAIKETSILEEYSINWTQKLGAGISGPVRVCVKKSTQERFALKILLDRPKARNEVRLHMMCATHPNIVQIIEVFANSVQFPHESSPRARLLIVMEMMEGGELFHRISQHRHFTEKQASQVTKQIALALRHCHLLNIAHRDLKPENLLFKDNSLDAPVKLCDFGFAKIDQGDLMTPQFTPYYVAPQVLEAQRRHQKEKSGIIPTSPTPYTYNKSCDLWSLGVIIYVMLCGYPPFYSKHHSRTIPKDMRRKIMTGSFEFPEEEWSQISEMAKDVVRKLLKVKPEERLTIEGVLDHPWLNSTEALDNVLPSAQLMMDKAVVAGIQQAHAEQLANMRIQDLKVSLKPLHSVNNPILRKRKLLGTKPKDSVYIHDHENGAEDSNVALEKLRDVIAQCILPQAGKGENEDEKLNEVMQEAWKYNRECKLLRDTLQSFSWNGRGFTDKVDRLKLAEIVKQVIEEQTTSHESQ

[5] = target: T5, KinomeScan kinase panel (Homo sapiens, UniProt Q15139); conditions: read-out: score (%)
T5 construct: purchased DiscoveRx (KinomeScan)
T5 sequence (Q15139 1-912): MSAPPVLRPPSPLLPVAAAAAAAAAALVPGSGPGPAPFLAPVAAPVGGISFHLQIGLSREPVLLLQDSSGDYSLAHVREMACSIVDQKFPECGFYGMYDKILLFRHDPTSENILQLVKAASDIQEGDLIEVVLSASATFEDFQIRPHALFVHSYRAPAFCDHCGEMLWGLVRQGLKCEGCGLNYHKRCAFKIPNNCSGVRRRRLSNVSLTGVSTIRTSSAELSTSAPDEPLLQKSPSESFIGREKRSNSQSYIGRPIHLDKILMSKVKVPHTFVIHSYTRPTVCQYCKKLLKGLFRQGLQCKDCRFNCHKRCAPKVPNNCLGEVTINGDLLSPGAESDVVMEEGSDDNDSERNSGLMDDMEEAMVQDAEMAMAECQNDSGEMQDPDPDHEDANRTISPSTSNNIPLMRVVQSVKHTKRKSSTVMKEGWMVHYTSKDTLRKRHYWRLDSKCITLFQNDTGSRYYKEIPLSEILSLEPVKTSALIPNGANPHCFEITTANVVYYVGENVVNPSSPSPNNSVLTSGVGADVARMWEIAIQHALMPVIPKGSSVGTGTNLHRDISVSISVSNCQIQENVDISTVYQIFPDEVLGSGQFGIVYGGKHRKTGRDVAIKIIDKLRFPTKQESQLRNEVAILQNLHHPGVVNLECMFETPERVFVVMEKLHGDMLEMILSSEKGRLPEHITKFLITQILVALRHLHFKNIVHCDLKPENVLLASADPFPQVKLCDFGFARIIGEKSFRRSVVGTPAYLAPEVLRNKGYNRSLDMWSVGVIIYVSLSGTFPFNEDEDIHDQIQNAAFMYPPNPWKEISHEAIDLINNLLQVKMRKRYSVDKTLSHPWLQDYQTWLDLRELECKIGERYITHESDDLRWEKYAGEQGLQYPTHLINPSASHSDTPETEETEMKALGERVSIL

[6] = target: T6, KinomeScan kinase panel (Homo sapiens, UniProt P15056); conditions: BRAF, 10 µM; read-out: score (%)
T6 construct: purchased DiscoveRx (KinomeScan)

[7] = target: T7, KinomeScan kinase panel (Homo sapiens, UniProt O43353); conditions: read-out: score (%)
T7 construct: purchased DiscoveRx (KinomeScan)

[8] = target: T8, KinomeScan kinase panel (Homo sapiens, UniProt P48730); conditions: CSNK1D, 10 µM; read-out: score (%)
T8 construct: purchased DiscoveRx (KinomeScan)

[9] = target: T9, KinomeScan kinase panel (Homo sapiens, UniProt Q9UBE8); conditions: NLK, 10 µM; read-out: score (%)
T9 construct: purchased DiscoveRx (KinomeScan)
T9 sequence (Q9UBE8 1-527): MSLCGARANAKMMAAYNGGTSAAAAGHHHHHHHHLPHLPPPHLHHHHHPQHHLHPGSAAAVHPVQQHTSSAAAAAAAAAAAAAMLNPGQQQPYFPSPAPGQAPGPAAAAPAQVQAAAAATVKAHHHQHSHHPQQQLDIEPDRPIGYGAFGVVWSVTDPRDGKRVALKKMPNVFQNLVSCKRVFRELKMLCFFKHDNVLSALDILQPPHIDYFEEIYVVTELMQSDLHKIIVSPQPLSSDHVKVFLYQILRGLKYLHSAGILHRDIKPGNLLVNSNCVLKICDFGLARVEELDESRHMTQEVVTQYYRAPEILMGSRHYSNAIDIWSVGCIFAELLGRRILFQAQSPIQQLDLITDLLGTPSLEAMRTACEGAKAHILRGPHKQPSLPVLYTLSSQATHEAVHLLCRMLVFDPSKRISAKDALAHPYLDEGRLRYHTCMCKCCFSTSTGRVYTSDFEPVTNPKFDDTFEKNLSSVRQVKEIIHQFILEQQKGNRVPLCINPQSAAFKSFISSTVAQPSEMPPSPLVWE

[10] = target: T10, KinomeScan kinase panel (Homo sapiens, UniProt P22694); conditions: PKAC-beta, 10 µM; read-out: score (%)
T10 construct: purchased DiscoveRx (KinomeScan)

[11] = target: T11, KinomeScan kinase panel (Homo sapiens, UniProt P68400); conditions: CSNK2A1, 10 µM; read-out: score (%)
T11 construct: purchased DiscoveRx (KinomeScan)
T11 sequence (P68400 whole entry): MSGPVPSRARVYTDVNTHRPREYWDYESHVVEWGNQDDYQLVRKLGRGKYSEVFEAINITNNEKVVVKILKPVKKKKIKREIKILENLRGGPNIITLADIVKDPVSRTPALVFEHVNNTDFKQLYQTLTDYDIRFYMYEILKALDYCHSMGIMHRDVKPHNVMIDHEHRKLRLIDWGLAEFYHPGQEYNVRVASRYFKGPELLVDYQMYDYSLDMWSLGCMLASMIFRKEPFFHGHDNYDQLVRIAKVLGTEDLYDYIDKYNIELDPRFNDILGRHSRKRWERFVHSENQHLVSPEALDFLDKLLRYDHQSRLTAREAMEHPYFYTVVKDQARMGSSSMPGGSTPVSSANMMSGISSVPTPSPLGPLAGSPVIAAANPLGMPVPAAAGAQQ

T2 sequence (P04049 whole entry): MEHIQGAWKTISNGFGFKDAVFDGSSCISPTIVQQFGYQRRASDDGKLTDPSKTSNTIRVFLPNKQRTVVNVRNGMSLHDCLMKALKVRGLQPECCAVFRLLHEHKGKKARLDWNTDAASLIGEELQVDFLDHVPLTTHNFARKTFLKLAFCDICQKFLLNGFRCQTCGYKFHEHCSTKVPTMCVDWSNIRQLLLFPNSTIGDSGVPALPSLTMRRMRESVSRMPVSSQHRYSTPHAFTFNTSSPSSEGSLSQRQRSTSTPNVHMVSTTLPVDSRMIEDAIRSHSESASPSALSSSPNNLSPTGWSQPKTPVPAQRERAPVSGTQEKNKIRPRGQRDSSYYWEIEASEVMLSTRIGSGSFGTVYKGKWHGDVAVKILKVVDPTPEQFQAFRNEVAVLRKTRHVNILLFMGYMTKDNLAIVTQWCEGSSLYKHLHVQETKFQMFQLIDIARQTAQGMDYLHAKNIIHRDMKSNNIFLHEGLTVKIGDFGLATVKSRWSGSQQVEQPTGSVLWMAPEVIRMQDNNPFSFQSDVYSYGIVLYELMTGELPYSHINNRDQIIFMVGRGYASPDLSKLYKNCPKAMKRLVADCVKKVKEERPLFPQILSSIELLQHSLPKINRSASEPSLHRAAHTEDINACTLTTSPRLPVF
T3 sequence (P42338 whole entry): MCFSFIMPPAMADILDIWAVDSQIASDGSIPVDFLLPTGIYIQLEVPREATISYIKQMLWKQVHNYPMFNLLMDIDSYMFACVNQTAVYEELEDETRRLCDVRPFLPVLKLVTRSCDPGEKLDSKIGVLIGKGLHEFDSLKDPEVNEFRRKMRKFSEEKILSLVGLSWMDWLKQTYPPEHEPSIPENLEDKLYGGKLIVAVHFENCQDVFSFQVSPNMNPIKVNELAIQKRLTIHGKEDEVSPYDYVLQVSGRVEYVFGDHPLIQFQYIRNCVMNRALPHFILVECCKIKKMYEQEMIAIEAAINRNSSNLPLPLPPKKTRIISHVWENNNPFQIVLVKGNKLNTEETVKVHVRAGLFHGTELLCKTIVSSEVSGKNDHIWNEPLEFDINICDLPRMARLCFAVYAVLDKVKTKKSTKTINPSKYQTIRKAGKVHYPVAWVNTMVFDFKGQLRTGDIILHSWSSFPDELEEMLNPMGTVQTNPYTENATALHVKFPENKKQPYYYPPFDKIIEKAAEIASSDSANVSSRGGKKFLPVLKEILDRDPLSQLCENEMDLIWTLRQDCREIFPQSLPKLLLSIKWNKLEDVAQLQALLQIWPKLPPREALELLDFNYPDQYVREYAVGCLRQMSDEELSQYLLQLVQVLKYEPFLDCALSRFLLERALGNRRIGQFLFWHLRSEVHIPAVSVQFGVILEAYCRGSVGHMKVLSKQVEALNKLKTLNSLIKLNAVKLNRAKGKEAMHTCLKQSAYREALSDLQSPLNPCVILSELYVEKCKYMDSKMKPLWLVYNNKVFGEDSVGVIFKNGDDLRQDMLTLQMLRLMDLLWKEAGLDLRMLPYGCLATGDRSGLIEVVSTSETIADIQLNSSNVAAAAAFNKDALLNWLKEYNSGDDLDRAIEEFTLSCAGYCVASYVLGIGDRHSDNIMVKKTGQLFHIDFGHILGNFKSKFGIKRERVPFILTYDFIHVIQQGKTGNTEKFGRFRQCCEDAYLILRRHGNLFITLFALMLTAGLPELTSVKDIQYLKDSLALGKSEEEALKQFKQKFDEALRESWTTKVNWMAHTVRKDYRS
T1 sequence (Q9UM73 19-1620): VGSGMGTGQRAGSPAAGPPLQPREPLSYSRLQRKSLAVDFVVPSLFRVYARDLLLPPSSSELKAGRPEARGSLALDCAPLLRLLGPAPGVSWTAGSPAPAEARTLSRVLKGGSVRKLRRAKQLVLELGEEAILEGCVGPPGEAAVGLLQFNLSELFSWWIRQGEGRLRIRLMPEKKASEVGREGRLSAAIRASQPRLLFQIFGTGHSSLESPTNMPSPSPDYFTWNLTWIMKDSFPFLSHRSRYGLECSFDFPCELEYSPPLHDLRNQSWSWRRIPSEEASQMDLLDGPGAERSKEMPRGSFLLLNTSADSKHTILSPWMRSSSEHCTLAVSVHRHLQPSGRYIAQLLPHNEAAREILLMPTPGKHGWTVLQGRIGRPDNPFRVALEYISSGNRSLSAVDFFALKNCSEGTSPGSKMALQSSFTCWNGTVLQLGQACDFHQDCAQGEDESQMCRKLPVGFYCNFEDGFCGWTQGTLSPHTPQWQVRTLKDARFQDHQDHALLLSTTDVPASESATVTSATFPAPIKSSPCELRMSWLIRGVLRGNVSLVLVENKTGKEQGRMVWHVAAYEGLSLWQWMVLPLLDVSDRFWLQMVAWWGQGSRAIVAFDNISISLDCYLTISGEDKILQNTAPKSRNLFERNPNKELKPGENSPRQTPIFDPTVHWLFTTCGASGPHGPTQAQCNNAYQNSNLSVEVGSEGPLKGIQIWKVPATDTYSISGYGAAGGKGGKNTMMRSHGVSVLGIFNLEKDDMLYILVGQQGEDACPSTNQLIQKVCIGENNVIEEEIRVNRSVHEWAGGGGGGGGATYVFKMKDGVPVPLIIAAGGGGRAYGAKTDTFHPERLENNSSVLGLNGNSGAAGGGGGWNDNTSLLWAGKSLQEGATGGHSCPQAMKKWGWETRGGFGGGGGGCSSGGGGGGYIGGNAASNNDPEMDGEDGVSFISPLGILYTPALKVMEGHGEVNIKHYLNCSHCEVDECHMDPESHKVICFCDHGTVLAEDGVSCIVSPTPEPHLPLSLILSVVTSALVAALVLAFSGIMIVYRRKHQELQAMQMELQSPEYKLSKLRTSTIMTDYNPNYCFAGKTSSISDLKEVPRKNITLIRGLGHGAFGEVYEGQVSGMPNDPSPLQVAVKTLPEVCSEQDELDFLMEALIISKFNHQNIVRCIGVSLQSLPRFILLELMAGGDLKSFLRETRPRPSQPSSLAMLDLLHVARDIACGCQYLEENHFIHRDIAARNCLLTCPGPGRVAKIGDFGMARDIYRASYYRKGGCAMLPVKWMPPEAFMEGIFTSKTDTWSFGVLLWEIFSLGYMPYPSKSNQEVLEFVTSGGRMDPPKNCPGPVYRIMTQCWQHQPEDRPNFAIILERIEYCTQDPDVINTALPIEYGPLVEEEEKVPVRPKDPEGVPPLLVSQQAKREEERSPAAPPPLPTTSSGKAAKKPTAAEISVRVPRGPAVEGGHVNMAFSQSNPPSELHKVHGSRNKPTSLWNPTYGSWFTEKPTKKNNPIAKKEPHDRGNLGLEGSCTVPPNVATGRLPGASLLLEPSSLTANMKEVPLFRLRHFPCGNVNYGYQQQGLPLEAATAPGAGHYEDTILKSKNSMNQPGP
T7 sequence (O43353 whole entry): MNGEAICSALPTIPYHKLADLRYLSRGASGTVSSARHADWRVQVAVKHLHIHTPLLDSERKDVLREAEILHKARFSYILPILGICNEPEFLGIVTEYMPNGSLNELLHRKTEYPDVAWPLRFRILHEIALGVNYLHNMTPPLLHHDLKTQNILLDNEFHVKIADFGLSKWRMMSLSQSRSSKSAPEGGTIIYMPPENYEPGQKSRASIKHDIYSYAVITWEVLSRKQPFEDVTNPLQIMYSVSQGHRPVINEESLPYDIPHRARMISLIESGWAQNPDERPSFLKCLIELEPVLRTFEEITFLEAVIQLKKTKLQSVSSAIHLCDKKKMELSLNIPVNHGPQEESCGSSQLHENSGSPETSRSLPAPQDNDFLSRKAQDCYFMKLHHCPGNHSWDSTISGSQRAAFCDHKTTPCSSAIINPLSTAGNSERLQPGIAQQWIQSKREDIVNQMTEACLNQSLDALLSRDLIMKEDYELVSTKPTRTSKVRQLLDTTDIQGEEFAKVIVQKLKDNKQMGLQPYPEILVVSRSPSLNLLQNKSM
T6 sequence (P15056 whole entry): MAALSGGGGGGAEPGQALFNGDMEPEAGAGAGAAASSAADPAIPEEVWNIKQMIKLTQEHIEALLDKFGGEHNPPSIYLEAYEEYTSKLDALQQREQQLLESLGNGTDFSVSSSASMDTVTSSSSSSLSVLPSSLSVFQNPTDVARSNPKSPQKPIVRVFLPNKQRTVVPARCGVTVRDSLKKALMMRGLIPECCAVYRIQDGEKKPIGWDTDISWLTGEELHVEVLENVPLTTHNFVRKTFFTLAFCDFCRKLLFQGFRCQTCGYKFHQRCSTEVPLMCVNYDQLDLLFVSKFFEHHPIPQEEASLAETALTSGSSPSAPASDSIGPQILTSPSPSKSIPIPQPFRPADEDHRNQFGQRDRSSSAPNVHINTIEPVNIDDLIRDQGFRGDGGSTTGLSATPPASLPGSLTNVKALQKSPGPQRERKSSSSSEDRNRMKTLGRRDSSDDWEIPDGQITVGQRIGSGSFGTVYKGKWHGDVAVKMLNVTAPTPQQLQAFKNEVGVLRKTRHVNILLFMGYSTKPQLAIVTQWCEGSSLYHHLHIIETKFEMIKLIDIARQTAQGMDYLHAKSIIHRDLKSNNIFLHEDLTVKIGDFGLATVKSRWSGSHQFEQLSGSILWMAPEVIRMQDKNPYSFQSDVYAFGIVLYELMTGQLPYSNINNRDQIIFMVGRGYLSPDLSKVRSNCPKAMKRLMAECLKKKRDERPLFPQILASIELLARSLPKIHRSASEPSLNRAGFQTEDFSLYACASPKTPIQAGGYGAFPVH

Compound | remaining binding at 10 µM [1] [%] | remaining binding at 10 µM ([2]; RAF1, 10 µM) [%] | remaining binding at 10 µM [3] [%] | remaining binding at 10 µM [4] [%] | remaining binding at 10 µM ([5]; PRKD1, 10 µM) [%] | remaining binding at 10 µM [6] [%] | remaining binding at 10 µM ([7]; RIPK2, 10 µM) [%] | remaining binding at 10 µM [8] [%] | remaining binding at 10 µM [9] [%] | remaining binding at 10 µM [10] [%] | remaining binding at 10 µM [11] [%] | remaining binding at 10 µM ([2]; kinase RAF1, 10 µM) [%] | remaining binding at 10 µM ([5]; kinase PRKD1, 10 µM) [%] | remaining binding at 10 µM ([7]; kinase RIPK2, 10 µM) [%]
CCN1CCN(Cc2ccc(NC(=O)c3ccc(C)c(NC(=O)c4cncc(-c5cccs5)c4)c3)cc2C(F)(F)F)CC1 [ALW-II-41-27] | > 30 | 1.4 | > 30 | > 30 | > 30 | 1.8 | 3.1 | 5 | 7.2 | 8 | > 30 |  |  | 
CCN1CCN(Cc2ccc(NC(=O)c3ccc(C)c(/C=C/c4cnc5[nH]ccc5c4Cl)c3)cc2C(F)(F)F)CC1 [HG-6-63-01, (E)-3-(2-(4-chloro-1H-pyrrolo[2,3-b]pyridin-5-yl)vinyl)-N-(4-((4-ethylpiperazin-1-yl)methyl)-3-(trifluoromethyl)phenyl)-4-methylbenzamide] | > 30 | 2.4 | > 30 | > 30 | > 30 | 1.2 | 1.6 | > 30 | 6.8 | > 30 | 15 |  |  | 
CCN1CCN(Cc2ccc(NC(=O)c3ccc(C)c(C#Cc4cccnc4)c3)cc2C(F)(F)F)CC1 [XMD15-44] | 23 |  | 100 | > 30 |  | 0.05 |  | 29 | 8.2 | 4.1 | > 30 | 0.5 | 51 | 0.45
